Assay results reported in patent publication US20150299143A1, “SUBSTITUTED TRIAZOLE AND IMIDAZOLE COMPOUNDS” (HOFFMANN-LA ROCHE INC., priority 2012, published 2015).

What was measured:
[1] = biological target: T1, β5c (chymotrypsin-like activity) (Homo sapiens, UniProt P20618+P28074); assay: Cell-Based Proteasome subunit activity/selectivity assay, β5c, substrate (WLA)2Rh110; details: Ramos cells; substrate (WLA)2Rh110 (β5c); highest concentration tested 20 μM; read-out: Ic50:ramos:rh110-(wla)2
T1 construct: protease activity associated with the proteasome complex in cultured cells; endogenous in cells; host or cells: Ramos cells
Procedure, shortened: (§1)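 Subunit activity in cultured cells read with subunit-selective fluorogenic Rh110 substrates: (LLE)2 for β1c, (PAL)2 for β1i, (KQL)2 for β2c/2i, (WLA)2 for β5c. Cells exposed to 4-fold serially diluted compound (top 20 μM) 30 min at 37 °C, then substrate 120 min at room temperature; fluorescence 500/519 nm.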

[2] = biological target: T2, β 5i (chymotrypsin-like activity) (Homo sapiens, UniProt P20618+P28062); assay: Cell-Based Proteasome subunit activity/selectivity assay, β5i, substrate (ANW)2Rh110; details: Ramos cells; substrate (ANW)2Rh110 (β5i); highest concentration tested 20 μM; read-out: Ic50:ramos:ac-(anw)2-r110
T2 construct: protease activity associated with the proteasome complex in cultured cells; endogenous in cells; host or cells: Ramos cells
Procedure, shortened: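 Cell-based fluorogenic assay measuring chymotrypsin-like β5i proteasome activity using the substrate (ANW)2Rh110. Cultured cells received 0.5 μl of 100× 4-fold serial diluted compounds or DMSO per well, were incubated 30 minutes at 37° C, then equilibrated 15 minutes at room temperature. After shaking one minute @ 700 rpm and 120 min room-temperature incubation, fluorescence was read at 500 nm excitation/519 nm emission on an Envision reader.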

[3] = biological target: T3, β 1i (caspase-like) (Homo sapiens, UniProt P28065+P40306); assay: Cell-Based Proteasome subunit activity/selectivity assay, β1i, substrate (PAL)2Rh110; details: Ramos cells; substrate (PAL)2Rh110 (β1i); highest concentration tested 20 μM; read-out: Ic50:ramos:rh110-(pal)2
T3 construct: protease activity associated with the proteasome complex in cultured cells; endogenous in cells; host or cells: Ramos cells
Procedure, shortened: as §1

[4] = system: β 2c/2i (trypsin-like); assay: Cell-Based Proteasome subunit activity/selectivity assay, β2c/2i, substrate (KQL)2Rh110; details: Ramos cells; substrate (KQL)2Rh110 (β2c/2i); highest concentration tested 20 μM
Procedure, shortened: as §1

[5] = biological target: T4, β 1c (caspase-like) (Homo sapiens, UniProt P28072+Q99436); assay: Cell-Based Proteasome subunit activity/selectivity assay, β1c, substrate (LLE)2Rh110; details: Ramos cells; substrate (LLE)2Rh110 (β1c); highest concentration tested 20 μM; read-out: Ic50:ramos:rh110-(lle)2
T4 construct: protease activity associated with the proteasome complex in cultured cells; endogenous in cells; host or cells: Ramos cells
Procedure, shortened: as §1

| Compound | IC50 [1] [µM] | IC50 [2] [µM] | IC50 [3] [µM] | IC50 [4] [µM] | IC50 [5] [µM] |
| --- | --- | --- | --- | --- | --- |
| CCOC(=O)[C@H](CCc1ccccc1)NC(=O)c1cn(CCNC(=O)c2ccc(OC)c(OC)c2OC)nn1 [Example 80, (S)-4-Phenyl-2-({1-[2-(2,3,4-trimethoxy-benzoylamino)-ethyl]-1H-[1,2,3]triazole-4-carbonyl}-amino)-butyric acid ethyl ester] | ≥ 20 | 0.447 | ≥ 20 | ≥ 20 | ≥ 20 |
| CCc1ccc(C(C#N)NC(=O)c2cn(CCNC(=O)c3cccc4c3OCC4)nn2)cc1 (stereo not drawn) [Example 13, 1-{2-[(2,3-Dihydro-benzofuran-7-carbonyl)-amino]-ethyl}-1H-[1,2,3]triazole-4-carboxylic acid [cyano-(4-ethyl-phenyl)-methyl]-amide] | ≥ 20 | 1.89 | ≥ 20 | ≥ 20 | ≥ 20 |
| CCc1ccc(C(C#N)NC(=O)c2cn(CCNC(=O)C3Cc4ccccc4C3)nn2)cc1 (stereo not drawn) [Example 12, 1-{2-[(Indane-2-carbonyl)-amino]-ethyl}-1H-[1,2,3]triazole-4-carboxylic acid [cyano-(4-ethyl-phenyl)-methyl]-amide] | ≥ 20 | 1.26 | ≥ 20 | ≥ 20 | ≥ 20 |
| COc1ccc(C(=O)NCCn2cc(C(=O)NCc3ccc(C)cc3)nn2)c(OC)c1OC [Example 3, 1-[2-(2,3,4-Trimethoxy-benzoylamino)-ethyl]-1H-[1,2,3]triazole-4-carboxylic acid 4-methyl-benzylamide] | ≥ 20 | 2.9 | ≥ 20 | ≥ 20 | ≥ 20 |
| CCc1ccc(C(C#N)NC(=O)c2nc(CCNC(=O)c3ccc(C(F)(F)F)cc3OC)n[nH]2)cc1 (stereo not drawn) [Example 90, 5-[2-(2-Methoxy-4-trifluoromethyl-benzoylamino)-ethyl]-2H-[1,2,4]triazole-3-carboxylic acid [cyano-(4-ethyl-phenyl)-methyl]-amide] | ≥ 20 | 0.014 | ≥ 20 | ≥ 20 | ≥ 20 |
| COc1ccc(C(=O)NCCn2cc(C(=O)NCc3ccc(SC)cc3)nn2)c(OC)c1OC [Example 6, 1-[2-(2,3,4-Trimethoxy-benzoylamino)-ethyl]-1H-[1,2,3]triazole-4-carboxylic acid 4-methylsulfanyl-benzylamide] | ≥ 20 | 0.919 | ≥ 20 | ≥ 20 | ≥ 20 |
| CCc1ccc(C(C#N)NC(=O)c2cn(CCNC(=O)c3cc(Cl)ccc3Cl)nn2)cc1 (stereo not drawn) [Example 14, 1-[2-(2,5-Dichloro-benzoylamino)-ethyl]-1H-[1,2,3]triazole-4-carboxylic acid [cyano-(4-ethyl-phenyl)-methyl]-amide] | ≥ 20 | 0.19 | ≥ 20 | ≥ 20 | ≥ 20 |
| COc1cc(C(F)(F)F)ccc1C(=O)NCCn1cnc(C(=O)NC(C#N)c2ccc(Br)cc2)c1 (stereo not drawn) [Example 93, 1-[2-(2-Methoxy-4-trifluoromethyl-benzoylamino)-ethyl]-1H-imidazole-4-carboxylic acid [(4-bromo-phenyl)-cyano-methyl]-amide] | ≥ 20 | 0.497 | ≥ 20 | ≥ 20 | ≥ 20 |
| COc1ccc(C(=O)NCCn2cc(C(=O)NC(C#N)c3ccc(OC(F)(F)F)cc3)nn2)c(OC)c1OC (stereo not drawn) [Example 10, 1-[2-(2,3,4-Trimethoxy-benzoylamino)-ethyl]-1H-[1,2,3]triazole-4-carboxylic acid [cyano-(4-trifluoromethoxy-phenyl)-methyl]-amide] | ≥ 20 | 0.886 | ≥ 20 | ≥ 20 | ≥ 20 |
| CCc1ccc(C(C#N)NC(=O)c2cn(CCNC(=O)c3ccc(C)nc3OC)nn2)cc1 (stereo not drawn) [Example 34, N-[2-(4-{[Cyano-(4-ethyl-phenyl)-methyl]-carbamoyl}-[1,2,3]triazol-1-yl)-ethyl]-2-methoxy-6-methyl-nicotinamide] | ≥ 20 | 0.259 | ≥ 20 | ≥ 20 | ≥ 20 |
| CCc1ccc(C(C#N)NC(=O)c2nc(CCNC(=O)c3ccc(C(F)(F)F)cc3F)n[nH]2)cc1 (stereo not drawn) [Example 91, 5-[2-(2-Fluoro-4-trifluoromethyl-benzoylamino)-ethyl]-2H-[1,2,4]triazole-3-carboxylic acid [cyano-(4-ethyl-phenyl)-methyl]-amide] | ≥ 20 | 0.054 | ≥ 20 | ≥ 20 | ≥ 20 |
| COc1ccc(C(=O)CNC(=O)c2cn(CCNC(=O)c3ccc(OC)c(OC)c3OC)nn2)cc1 [Example 77, 1-[2-(2,3,4-Trimethoxy-benzoylamino)-ethyl]-1H-[1,2,3]triazole-4-carboxylic acid [2-(4-methoxy-phenyl)-2-oxo-ethyl]-amide] | ≥ 20 | 8.75 | ≥ 20 | ≥ 20 | ≥ 20 |

Further lines, results first:

| IC50 [1] [µM] | IC50 [2] [µM] | IC50 [3] [µM] | IC50 [4] [µM] | IC50 [5] [µM] | Compound |
| --- | --- | --- | --- | --- | --- |
| ≥ 20 | 4.29 | ≥ 20 | ≥ 20 | ≥ 20 | CCc1ccc(C(C#N)NC(=O)c2cn(CCNC(=O)CC3Cc4ccccc4C3)nn2)cc1 (stereo not drawn) [Example 9, 1-[2-(2-Indan-2-yl-acetylamino)-ethyl]-1H-[1,2,3]triazole-4-carboxylic acid [cyano-(4-ethyl-phenyl)-methyl]-amide] |
| 6.21 | 1.43 | ≥ 20 | ≥ 20 | ≥ 20 | CCc1ccc(C(C#N)NC(=O)c2cn(CCNC(=O)c3ccc(Oc4ccc(Cl)cc4)cn3)nn2)cc1 (stereo not drawn) [Example 43, 5-(4-Chloro-phenoxy)-pyridine-2-carboxylic acid [2-(4-{[cyano-(4-ethyl-phenyl)-methyl]-carbamoyl}-[1,2,3]triazol-1-yl)-ethyl]-amide] |
| ≥ 20 | 0.779 | ≥ 20 | ≥ 20 | ≥ 20 | CCc1ccc(C(C#N)NC(=O)c2cn(CCNC(=O)c3ccccc3OC(F)(F)F)nn2)cc1 (stereo not drawn) [Example 24, 1-[2-(2-Trifluoromethoxy-benzoylamino)-ethyl]-1H-[1,2,3]triazole-4-carboxylic acid [cyano-(4-ethyl-phenyl)-methyl]-amide] |
| ≥ 20 | 0.524 | ≥ 20 | ≥ 20 | ≥ 20 | COc1cc(C(F)(F)F)ccc1C(=O)NCCn1cc(C(=O)NC(C#N)c2ccc(C(F)(F)F)cc2)nn1 (stereo not drawn) [Example 72, 1-[2-(2-Methoxy-4-trifluoromethyl-benzoylamino)-ethyl]-1H-[1,2,3]triazole-4-carboxylic acid [cyano-(4-trifluoromethyl-phenyl)-methyl]-amide] |
| ≥ 20 | 5.67 | ≥ 20 | ≥ 20 | ≥ 20 | COc1ccc(C(=O)NCCn2cc(C(=O)NC(C#N)c3ccccc3Br)nn2)c(OC)c1OC (stereo not drawn) [Example 59, 1-[2-(2,3,4-Trimethoxy-benzoylamino)-ethyl]-1H-[1,2,3]triazole-4-carboxylic acid [(2-bromo-phenyl)-cyano-methyl]-amide] |
| 16.1 | 5.94 | ≥ 20 | ≥ 20 | ≥ 20 | CCc1ccc(C(C#N)NC(=O)c2cn(CCN3Cc4ccccc4C3=O)nn2)cc1 (stereo not drawn) [Example 46, 1-[2-(1-Oxo-1,3-dihydro-isoindol-2-yl)-ethyl]-1H-[1,2,3]triazole-4-carboxylic acid [cyano-(4-ethyl-phenyl)-methyl]-amide] |
| 5.49 | 0.491 | ≥ 20 | ≥ 20 | ≥ 20 | CCc1ccc(C(C#N)NC(=O)c2cn(CCNC(=O)c3ccc(OC)nc3OC)nn2)cc1 (stereo not drawn) [Example 35, N-[2-(4-{[Cyano-(4-ethyl-phenyl)-methyl]-carbamoyl}-[1,2,3]triazol-1-yl)-ethyl]-2,6-dimethoxy-nicotinamide] |
| 10.8 | 0.445 | ≥ 20 | ≥ 20 | ≥ 20 | CC1=C(C(=O)NCCn2cc(C(=O)NC(C#N)c3ccc(C(F)(F)F)cc3)nn2)Cc2ccccc21 (stereo not drawn) [Example 70, 1-{2-[(3-Methyl-1H-indene-2-carbonyl)-amino]-ethyl}-1H-[1,2,3]triazole-4-carboxylic acid [cyano-(4-trifluoromethyl-phenyl)-methyl]-amide] |
| 8.3 | 5.68 | ≥ 20 | ≥ 20 | 19.1 | COc1ccc(C(=O)NCCn2cc(C(=O)NC(C#N)c3ccc(OCc4ccccc4)cc3)nn2)c(OC)c1OC (stereo not drawn) [Example 56, 1-[2-(2,3,4-Trimethoxy-benzoylamino)-ethyl]-1H-[1,2,3]triazole-4-carboxylic acid [(4-benzyloxy-phenyl)-cyano-methyl]-amide] |
